Results on 17 compounds are retold here after patent EP2712863B1, “Novel inhibitors of bacterial biofilms and related methods” (Sequoia Sciences, Inc., priority 2012, dated 2014).

In one assay the test system is P. aeruginosa. Put plainly: Biofilm growth assay (spreading biofilm on semi-solid agar). The assay is classed as cell-based. The following applies: Pseudomonas aeruginosa.
The subject of a further assay is E. coli. The description is as above. The assay is classed as cell-based. The following applies: Escherichia coli. The method in brief: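 Spreading (swarming) biofilm on semi-solid agar: E. coli on LB with 0.6% agar and 0.5% glucose; P. aeruginosa on M8 agar with 0.2% glucose, 100 µM CaCl2, 1 mM MgSO4, 0.5% Casamino acids. Compound in medium; 5 µL overnight culture spotted centrally, 37°C overnight. Value: concentration (µg/ml) giving ≥85% reduction in spread area versus negative control.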

Setting [1] is: Table 4, concentration that reduces the area of the spreading biofilm by >= 85%, read-out: P. aeruginosa.
Setting [2] is: Table 4, concentration that reduces the area of the spreading biofilm by >= 85%, read-out: E. coli.
Where [3] appears, read: Table 3, concentration that reduces the area of the spreading biofilm by >= 85%, read-out: P. aeruginosa.
Setting [4] is: Table 3, concentration that reduces the area of the spreading biofilm by >= 85%, read-out: E. coli.
Setting [5] is: Table 1, concentration that reduces the area of the spreading biofilm vs negative controls by >= 85%, > means not effective at this concentration, read-out: P. aeruginosa.
[6] abbreviates: Table 1, concentration that reduces the area of the spreading biofilm vs negative controls by >= 85%, > means not effective at this concentration, read-out: E. coli.

SMILES strings stand for the structures. In brackets after ≈: the same amount, converted by molar mass. Where two headings read alike, the source gives them in different places. Some results are limits rather than exact numbers.

Take `Cc1nnc(S)n1NC(=O)[C@]12CCC(C)(C)CC1C1=CCC3[C@@]4(C)Cc5c(n[nH]c5N)C(C)(C)C4CC[C@@]3(C)[C@]1(C)CC2` (stereo partly drawn) [Compound 77, (4aS,6aS,6bR,13aR)-12-Amino-N-(3-mercapto-5-methyl-4H-1,2,4-triazol-4-yl)-2,2,6a,6b,9,9,13a-heptamethyl-2,3,4,4a,5,6,6a,6b,7,8,8a,9,11,13,13a,13b,14,15b-octadecahydro-1H-chryseno[1,2-f]indazole-4a-carboxamide]: the results for the IC85 in the assay with P. aeruginosa (setting [1]) and in the assay with E. coli (setting [2]) were 1 µg/mL (≈ 1.65 µM) and 2 µg/mL (≈ 3.3 µM), respectively.

For `CC1(C)CC[C@]2(C(=O)Nc3nnn[nH]3)CC[C@]3(C)C(=CCC4[C@@]5(C)Cc6c(n[nH]c6N)C(C)(C)C5CC[C@]43C)C2C1` (stereo partly drawn) [Compound 61, (4aS,6aS,6bR,13aR)-12-Amino-2,2,6a,6b,9,9,13a-heptamethyl-N-(1H-tetrazol-5-yl)-2,3,4,4a,5,6,6a,6b,7,8,8a,9,11,13,13a,13b,14,15b-octadecahydro-1H-chryseno[1,2-f]indazole-4a-carboxamide], the IC85 in the assay on P. aeruginosa (read-out: P. aeruginosa (µg/ml)) and in the assay with E. coli (read-out: E. coli (µg/ml)) was 0.5 µg/mL (≈ 0.892 µM) in each case.

Regarding `CC1(C)CC[C@]2(C(=O)O)CC[C@]3(C)C(=C(c4ccoc4CN4CCNCC4)CC4[C@@]5(C)Cc6c(n[nH]c6N)C(C)(C)[C@@H]5CC[C@]43C)[C@@H]2C1` (stereo partly drawn) [Compound 35, (4aS,6aS,6bR,8aR,13aR,15bS)-12-Amino-2,2,6a,6b,9,9,13a-heptamethyl-15-(2-(piperazin-1-ylmethyl)furan-3-yl)-2,3,4,4a,5,6,6a,6b,7,8,8a,9,11,13,13a,13b,14,15b-octadecahydro-1H-chryseno[1,2-f]indazole-4a-carboxylic acid], the IC85 in the assay on P. aeruginosa (setting [3]) was over 1 µg/mL; in the assay with E. coli (setting [4]), 1 µg/mL (≈ 1.52 µM).

Turning to `CC1(C)CC[C@]2(c3n[nH]c(O)c3CCNC(N)=O)CC[C@]3(C)C(=CCC4[C@@]5(C)Cc6c(n[nH]c6N)C(C)(C)C5CC[C@]43C)C2C1` (stereo partly drawn) [Compound 87, 1-(2-(3-((4aS,6aS,6bR,13aR)-12-Amino-2,2,6a,6b,9,9,13a-heptamethyl-2,3,4,4a,5,6,6a,6b,7,8,8a,9,11,13,13a,13b,14,15b-octadecahydro-1H-chryseno[1,2-f]indazol-4a-yl)-5-hydroxy-1H-pyrazol-4-yl)ethyl)urea], the IC85 in the assay on P. aeruginosa (setting [1]) came to 0.5 µg/mL (≈ 0.809 µM); in the assay with E. coli (setting [2]), 1 µg/mL (≈ 1.62 µM).

In the case of `CC1(C)CC[C@]2(C(=O)O)CC[C@]3(C)C(=CCC4[C@@]5(C)Cc6c(n[nH]c6Br)C(C)(C)C5CC[C@]43C)C2C1` (stereo partly shown) [H], the figures for the IC85 with P. aeruginosa (setting [5]) and with E. coli (setting [6]) were 8 µg/mL (≈ 14.3 µM) and over 8 µg/mL, respectively.

With `CN(C)c1ccc(C2=C3[C@@H]4CC(C)(C)CC[C@]4(C(=O)O)CC[C@@]3(C)[C@]3(C)CC[C@H]4C(C)(C)c5n[nH]c(N)c5C[C@]4(C)C3C2)cn1` (stereo partly drawn) [Compound 44, (4aS,6aS,6bR,8aR,13aR,15bS)-12-Amino-15-(6-(dimethylamino)pyridin-3-yl)-2,2,6a,6b,9,9,13a-heptamethyl-2,3,4,4a,5,6,6a,6b,7,8,8a,9,11,13,13a,13b,14,15b-octadecahydro-1H-chryseno[1,2-f]indazole-4a-carboxylic acid], the IC85 in the assay with P. aeruginosa (setting [3]) came to 0.5 µg/mL (≈ 0.814 µM); with E. coli (setting [4]), 2 µg/mL (≈ 3.26 µM).

Regarding `Cn1nc([C@]23CCC(C)(C)C[C@H]2C2=CCC4[C@@]5(C)Cc6c(n[nH]c6N)C(C)(C)[C@@H]5CC[C@@]4(C)[C@]2(C)CC3)cc1N` (stereo partly drawn) [Compound 72, (4aS,6aS,6bR,8aR,13aR,15bS)-4a-(5-Amino-1-methyl-1H-pyrazol-3-yl)-2,2,6a,6b,9,9,13a-heptamethyl-2,3,4,4a,5,6,6a,6b,7,8,8a,9,11,13,13a,13b,14,15b-octadecahydro-1H-chryseno[1,2-f]indazol-12-amine], the IC85 is 1 µg/mL (≈ 1.84 µM) in the assay on P. aeruginosa (setting [1]) and over 2 µg/mL in the assay with E. coli (setting [2]).

In the case of `C=C(C)[C@@H]1CC[C@]2(C(=O)O)CC[C@]3(C)[C@H](CC[C@@H]4[C@@]5(C)CC[C@H](O)C(C)(C)[C@@H]5CC[C@]43C)[C@@H]12` [Betulinic acid, reference compound], the IC85 in the assay with P. aeruginosa (setting [5]) and in the assay on E. coli (setting [6]) was over 16 µg/mL each time.

In the case of `CN1CCN(c2ccc(C3=C4C5CC(C)(C)CC[C@]5(C(=O)O)CC[C@@]4(C)[C@]4(C)CCC5C(C)(C)c6n[nH]c(N)c6C[C@]5(C)C4C3)cc2)CC1` (stereo partly drawn) [Compound 53, (4aS,6aS,6bR,13aR)-12-Amino-2,2,6a,6b,9,9,13a-heptamethyl-15-(4-(4-methylpiperazin-1-yl)phenyl)-2,3,4,4a,5,6,6a,6b,7,8,8a,9,11,13,13a,13b,14,15b-octadecahydro-1H-chryseno[1,2-f]indazole-4a-carboxylic acid], the IC85 with P. aeruginosa (setting [3]) is 0.5 µg/mL (≈ 0.749 µM); in the assay on E. coli (setting [4]), 2 µg/mL (≈ 2.99 µM).

With `CC1(C)CC[C@]2(C(=O)Nc3nnc(S)s3)CC[C@]3(C)C(=CCC4[C@@]5(C)Cc6c(n[nH]c6N)C(C)(C)C5CC[C@]43C)C2C1` (stereo partly drawn) [Compound 74, (4aS,6aS,6bR,13aR)-12-Amino-N-(5-mercapto-1,3,4-thiadiazol-2-yl)-2,2,6a,6b,9,9,13a-heptamethyl-2,3,4,4a,5,6,6a,6b,7,8,8a,9,11,13,13a,13b,14,15b-octadecahydro-1H-chryseno[1,2-f]indazole-4a-carboxamide], the IC85 is 1 µg/mL (≈ 1.64 µM) in the assay with P. aeruginosa (setting [1]) and over 2 µg/mL with E. coli (setting [2]).

As to `CC1(C)CC[C@]2(CN)CC[C@]3(C)C(=CCC4[C@@]5(C)Cc6c(n[nH]c6N)C(C)(C)C5CC[C@]43C)C2C1` (stereo partly drawn) [Compound 63, (4aS,6aS,6bR,13aR)-4a-(Aminomethyl)-2,2,6a,6b,9,9,13a-heptamethyl-2,3,4,4a,5,6,6a,6b,7,8,8a,9,11,13,13a,13b,14,15b-octadecahydro-1H-chryseno[1,2-f]indazol-12-amine], the IC85 in the assay with P. aeruginosa (setting [1]) amounted to 4 µg/mL (≈ 8.35 µM); with E. coli (setting [2]), 1 µg/mL (≈ 2.09 µM).

As for `CC1(C)CC[C@]2(C(=O)O)CC[C@]3(C)C(=C(c4ccc(N)nc4)CC4[C@@]5(C)Cc6c(n[nH]c6N)C(C)(C)[C@@H]5CC[C@]43C)[C@@H]2C1` (stereo partly drawn) [Compound 41, (4aS,6aS,6bR,8aR,13aR,15bS)-12-Amino-15-(6-aminopyridin-3-yl)-2,2,6a,6b,9,9,13a-heptamethyl-2,3,4,4a,5,6,6a,6b,7,8,8a,9,11,13,13a,13b,14,15b-octadecahydro-1H-chryseno[1,2-f]indazole-4a-carboxylic acid], the IC85 in the assay with P. aeruginosa (setting [3]) turned out to be 1 µg/mL (≈ 1.71 µM); with E. coli (setting [4]), 2 µg/mL (≈ 3.41 µM).

Regarding `CC1(C)CC[C@]2(c3n[nH]c(O)c3CCN)CC[C@]3(C)C(=C(c4ccoc4CN4CCOCC4)CC4[C@@]5(C)Cc6c(n[nH]c6N)C(C)(C)[C@@H]5CC[C@]43C)[C@@H]2C1` (stereo partly drawn) [Compound 92, 3-((4aS,6aS,6bR,8aR,13aR,15bS)-12-Amino-2,2,6a,6b,9,9,13a-heptamethyl-15-(2-(morpholinomethyl)furan-3-yl)-2,3,4,4a,5,6,6a,6b,7,8,8a,9,11,13,13a,13b,14,15b-octadecahydro-1H-chryseno[1,2-f]indazol-4a-yl)-4-(2-aminoethyl)-1H-pyrazol-5-ol], the IC85 worked out at 0.5 µg/mL (≈ 0.676 µM) in the assay with P. aeruginosa (Table 5, concentration that reduces the area of the spreading biofilm by >= 85%, read-out: P. aeruginosa) and 2 µg/mL (≈ 2.7 µM) with E. coli (Table 5, concentration that reduces the area of the spreading biofilm by >= 85%, read-out: E. coli).

`CC1(C)CC[C@]2(C(=O)O)CC[C@]3(C)C(=C(c4ccc(N)c(F)c4)CC4[C@@]5(C)Cc6c(n[nH]c6N)C(C)(C)C5CC[C@]43C)C2C1` (stereo partly drawn) [Compound 31, (4aS,6aS,6bR,13aR)-12-Amino-15-(4-amino-3-fluorophenyl)-2,2,6a,6b,9,9,13a-heptamethyl-2,3,4,4a,5,6,6a,6b,7,8,8a,9,11,13,13a,13b,14,15b-octadecahydro-1H-chryseno[1,2-f]indazole-4a-carboxylic acid]: the IC85 is 0.5 µg/mL (≈ 0.829 µM) with P. aeruginosa (setting [3]) and 1 µg/mL (≈ 1.66 µM) in the assay with E. coli (setting [4]).

Turning to `CC1(C)CC[C@]2(C(=O)O)CC[C@]3(C)C(=C(c4ccc(N5CCOCC5)cc4)CC4[C@@]5(C)Cc6c(n[nH]c6N)C(C)(C)C5CC[C@]43C)C2C1` (stereo partly drawn) [Compound 51, (4aS,6aS,6bR,13aR)-12-Amino-2,2,6a,6b,9,9,13a-heptamethyl-15-(4-morpholinophenyl)-2,3,4,4a,5,6,6a,6b,7,8,8a,9,11,13,13a,13b,14,15b-octadecahydro-1H-chryseno[1,2-f]indazole-4a-carboxylic acid], the IC85 in the assay with P. aeruginosa (setting [3]) is 0.5 µg/mL (≈ 0.763 µM); in the assay with E. coli (setting [4]), 2 µg/mL (≈ 3.05 µM).

Turning to `CC1(C)CC[C@]2(C(=O)O)CC[C@]3(C)C(=C(c4coc(CN5CCOCC5)c4)CC4[C@@]5(C)Cc6c(n[nH]c6N)C(C)(C)[C@@H]5CC[C@]43C)[C@@H]2C1` (stereo partly drawn) [Compound 40, (4aS,6aS,6bR,8aR,13aR,15bS)-12-Amino-2,2,6a,6b,9,9,13a-heptamethyl-15-(5-(morpholinomethyl)furan-3-yl)-2,3,4,4a,5,6,6a,6b,7,8,8a,9,11,13,13a,13b,14,15b-octadecahydro-1H-chryseno[1,2-f]indazole-4a-carboxylic acid], the IC85 with P. aeruginosa (setting [3]) was 0.5 µg/mL (≈ 0.759 µM); in the assay with E. coli (setting [4]), 2 µg/mL (≈ 3.04 µM).

As for `CC1(C)CC[C@]2(C(=O)NO)CC[C@]3(C)C(=CCC4[C@@]5(C)Cc6c(n[nH]c6N)C(C)(C)C5CC[C@]43C)C2C1` (stereo partly drawn) [Compound 65, (4aS,6aS,6bR,13aR)-12-Amino-N-hydroxy-2,2,6a,6b,9,9,13a-heptamethyl-2,3,4,4a,5,6,6a,6b,7,8,8a,9,11,13,13a,13b,14,15b-octadecahydro-1H-chryseno[1,2-f]indazole-4a-carboxamide], the IC85 in the assay with P. aeruginosa (setting [1]) and in the assay with E. coli (setting [2]) was 0.25 µg/mL (≈ 0.491 µM) throughout.
